Assay results published in US7741520B2, “Sulfonanilide analogs as selective aromatase modulators (SAMs)” (The Ohio State University Research Foundation, priority 2006, dated 2010).

Legend:
[1] = system: PGE2 production in MDA-MB-231 cells; experiment: Enzyme immunoassay of PGE2 in MDA-MB-231 cells (COX-2 inhibitory activity); format: cell-based, human; settings: 25 μM, 24 h (FIG. 4)
Method: Enzyme Immunoassay of PGE2 in MDA-MB-231 Cells. MDA-MB-231 cells were obtained from ATCC (Rockville, Md.). Cell cultures were maintained in phenol red-free custom media (MEM, Earle's salts, 1.5× amino acids, 2× nonessential amino acids, L-glutamine, 1.5× vitamins, Gibco BRL) supplemented with 10% fetal bovine serum (FBS), 2 mM L-glutamine and 20 mg/L gentamycin. To study PGE2 synthesis in cell culture media, experiments were performed in […] Petri dishes. An aliquot of MDA-MB-231 cells (15×10^4 cells) were added to each dish and then incubated overnight to allow the cells to adhere to the dish. After that, cells were serum starved in defined media for 24 h. This step was followed by replacement of media with fresh media containing either vehicle (DMSO) or the indicated concentration of agents. After 24 h incubation at 37° C. the media were collected and the amount of PGE2 was determined by ELISA (Cayman Chemical) according to the protocol provided by the manufacturer. PGE2 concentration was normalized to total protein. Total proteins were extracted from adhered cells by 30 min treatment with 0.5 M NaOH at room temperature and shaking. Protein concentrations in these extracts were determined using a protein assay method (Bio-Rad Laboratories, Inc., Hercules, Calif.).

[2] = system: aromatase activity in SK-BR-3 breast cancer cells; experiment: Aromatase tritiated water-release assay in SK-BR-3 cell lines (first compound set); format: cell-based, human; settings: SK-BR-3 cells, 24 h treatment; five concentrations, each in triplicate; read-out: IC50 (μM), suppression of aromatase activity in SK-BR-3 breast cancer cells
Method: Aromatase Tritiated Water-Release Assay in SK-BR-3 Cell Lines. SK-BR-3 cells were obtained from ATCC (Rockville, Md.). Cell cultures were maintained in phenol red-free custom media (MEM, Earle's salts, 1.5× amino acids, 2× nonessential amino acids, L-glutamine, 1.5× vitamins, Gibco BRL) supplemented with 10% fetal bovine serum (FBS), 2 mM L-glutamine, and 20 mg/L gentamycin. Measurement of aromatase enzyme activity was based on the tritium water release assay. 24 Cells in 100 mm Petri dish were treated with 0.1% DMSO (control), and inhibitors at the indicated concentrations. After 24 h, the media was changed and the cells were incubated with 100 nM [1â-3H]-androst-4-ene-3,17-dione ([…]) for 3 h. Subsequently, the reaction mixture was removed, and proteins were precipitated using 10% trichloroacetic acid at 42° C. for 20 min. After a brief centrifugation, the media was extracted three times with an equal amount of chloroform to extract unused substrate and further dextran-treated charcoal. After centrifugation, a 250-μL aliquot containing the product was counted in 5 mL of liquid scintillation mixture. Results were corrected for blanks and for the cell contents of culture flasks, and results were expressed as picomoles of 3H2O formed per hour incubation time per million live cells (pmol/h/10^6 cells). To determine the amount of cells in each flask, the cells were trypsinized and analyzed using the diphenylamine DNA assay adapted to a 96-well plate. (Natarajan N.; Shambaugh, G. E., 3rd; Elseth K. M.; Haines G. K.; Radosevich J. A. Adaptation of the diphenylamine (DPA) assay to a 96-well plate tissue culture format and comparison with the MTT assay. Biotechniques 1994, 17, 166-171; incorporated herein by reference). IC50 sigmoidal dose-response data were analyzed with Microsoft Excel and the Graphpad Prism (Version 3.0) program.

[3] = system: aromatase activity in SK-BR-3 breast cancer cells; experiment: Tritiated water-release assay in SK-BR-3 cells (additional compounds); format: cell-based, human
Method: Cell Culture. AR and SK-BR-3 cells were obtained from ATCC (Rockville, Md.). SK-BR-3 cells were maintained in phenol red-free custom media (MEM, Earle's salts, 1.5× amino acids, 2× non-essential amino acids, L-glutamine, 1.5× vitamins, Gibco BRL) supplemented with 10% fetal bovine serum (FBS), 2 mM L-glutamine and 20 mg/L gentamycin. […] Fetal bovine serum was heat inactivated for 30 min in a 56° C. water bath before use. Cell cultures were grown at 37° C., in a humidified atmosphere of 5% CO2 in a Hereaus CO2 incubator. For all experiments, cells were plated in 6 well plates and grown to subconfluency. Before treatment, the media was changed to a defined one containing DMEM/F12 media (Sigma) with 1.0 mg/mL human albumin (OSU Hospital Pharmacy), 5.0 mg/L human transferin and 5.0 mg/L bovine insulin.
(§1) Tritiated water-release assay in JAR and SK-BR-3 cell lines. Measurement of aromatase enzyme activity was based on the tritium water release assay. Cells in six well plates were treated with 0.1% DMSO (control), and inhibitors at the indicated concentrations. After 24 hours, the cells were incubated 3 hours (SK-BR-3 cells) or 1 hour (JAR cells) with fresh media along with 100 nM [1β-^3H]-androst-4-ene-3,17-dione (1 μCi). Subsequently, the reaction mixture was removed, and proteins were precipitated using 10% trichloroacetic acid at 42° C. for 20 min. After a brief centrifugation, the media was extracted three times with an equal amount of chloroform to remove remaining substrate and further treated with dextran-treated charcoal. After centrifugation, a 250-μl aliquot containing the product was counted in 5 ml of liquid scintillation mixture. Results were corrected for blanks and for the cell contents of culture flasks, and results were expressed as picomoles of ^3H2O formed per hour incubation time per million live cells (pmol/h/10^6 cells). To determine the amount of cells in each flask, the cells were lysed and analyzed using the diphenylamine DNA assay adapted to a 96-well plate. IC50 sigmoidal dose-response data were analyzed with Microsoft Excel and the Graphpad Prism (Version 3.0) program.
Diphenylamine DNA Assay To determine the amount of viable cells in each flask, the cells were lysed with 0.5N NaOH aqueous solution and analyzed using the diphenylamine DNA assay adapted to a 96-well plate. DNA standards (0-30 μg) were prepared using double-stranded DNA reconstituted in PBS and added in triplicates directly to the wells. A uniform cell suspension was prepared from the 6 well plate in 300 μl 0.5N NaOH aqueous solution, and 60 μl of the unknown samples were added in triplicates to separate wells. […] This solution (60 μl) was added to each well along with 100 μl of a 4% diphenylamine solution in glacial acetic acid. The plates were incubated at 37° C. for 24 hours. After centrifugation, 100 μl supernatant of each well was transferred to a new 96 well plate, and the OD595 was measured using a microplater reader. The DNA concentration was determined by extrapolation to the standard curve and the amount of cells/well was calculated using the equation: 1 cell≈7 pg DNA.

[4] = biological target: T1, aromatase activity in JAR choriocarcinoma placental cells (Homo sapiens, UniProt P11511); experiment: Tritiated water-release assay in JAR cells; format: cell-based
T1 construct: JAR choriocarcinoma placental cells (which produce aromatase expression from promoter I.1 mediated by protein kinase C); host or cells: JAR
T1 sequence (P11511 1-503): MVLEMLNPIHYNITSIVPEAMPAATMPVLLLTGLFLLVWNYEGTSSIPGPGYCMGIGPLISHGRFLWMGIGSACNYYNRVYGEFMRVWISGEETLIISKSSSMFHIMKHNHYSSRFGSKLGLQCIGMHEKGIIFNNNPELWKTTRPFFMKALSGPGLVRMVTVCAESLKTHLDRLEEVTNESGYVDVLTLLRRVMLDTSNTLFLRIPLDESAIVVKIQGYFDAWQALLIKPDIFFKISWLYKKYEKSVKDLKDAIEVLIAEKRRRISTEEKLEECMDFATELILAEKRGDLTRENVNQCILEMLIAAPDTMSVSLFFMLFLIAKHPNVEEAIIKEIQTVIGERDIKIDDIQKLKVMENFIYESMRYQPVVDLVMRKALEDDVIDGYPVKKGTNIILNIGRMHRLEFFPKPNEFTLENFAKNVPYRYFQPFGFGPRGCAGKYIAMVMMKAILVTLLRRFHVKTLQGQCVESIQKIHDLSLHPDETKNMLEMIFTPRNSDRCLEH
Method: Cell Culture. AR and SK-BR-3 cells were obtained from ATCC (Rockville, Md.). SK-BR-3 cells were maintained in phenol red-free custom media (MEM, Earle's salts, 1.5× amino acids, 2× non-essential amino acids, L-glutamine, 1.5× vitamins, Gibco BRL) supplemented with 10% fetal bovine serum (FBS), 2 mM L-glutamine and 20 mg/L gentamycin. JAR cells were maintained in RPMI 1640 medium with 2 mM L-glutamine adjusted to contain 1.5 g/L sodium bicarbonate, 4.5 g/L glucose, 10 mM HEPES, and 1.0 mM sodium pyruvate, 90%; FBS, 10%. Fetal bovine serum was heat inactivated for 30 min in a 56° C. water bath before use. Cell cultures were grown at 37° C., in a humidified atmosphere of 5% CO2 in a Hereaus CO2 incubator. For all experiments, cells were plated in 6 well plates and grown to subconfluency. Before treatment, the media was changed to a defined one containing DMEM/F12 media (Sigma) with 1.0 mg/mL human albumin (OSU Hospital Pharmacy), 5.0 mg/L human transferin and 5.0 mg/L bovine insulin.
as §1
Diphenylamine DNA Assay To determine the amount of viable cells in each flask, the cells were lysed with 0.5N NaOH aqueous solution and analyzed using the diphenylamine DNA assay adapted to a 96-well plate. DNA standards (0-30 μg) were prepared using double-stranded DNA reconstituted in PBS and added in triplicates directly to the wells. A uniform cell suspension was prepared from the 6 well plate in 300 μl 0.5N NaOH aqueous solution, and 60 μl of the unknown samples were added in triplicates to separate wells. A solution of 0.16% acetaldehyde in water was prepared and mixed at a 1:5 ratio with perchloric acid (20% vol/vol). This solution (60 μl) was added to each well along with 100 μl of a 4% diphenylamine solution in glacial acetic acid. The plates were incubated at 37° C. for 24 hours. After centrifugation, 100 μl supernatant of each well was transferred to a new 96 well plate, and the OD595 was measured using a microplater reader. The DNA concentration was determined by extrapolation to the standard curve and the amount of cells/well was calculated using the equation: 1 cell≈7 pg DNA.

Row | SMILES | PGE2 production (COX-2 inhibitory activity) [1] | melting point | IC50 [2] | IC50 ([3]; dose-response (FIG. 13), read-out: IC50 (μM), suppression of aromatase activity in SK-BR-3 breast cancer cells) | decrease of aromatase activity in SK-BR-3 cells (in words) ([3]; 2.5 μM) | aromatase suppression activity in JAR cells (in words) ([4]; 15 μM) | inhibition at 15 µM ([4]; 24 h, 15 μM (FIG. 11), read-out: decrease of aromatase activity in JAR cells)
1 | CS(=O)(=O)Nc1ccc([N+](=O)[O-])cc1OC1CCCC1 [Compound 12, N-(2-Cyclopentyloxy-4-nitrophenyl)methanesulfonamide] | significantly decrease in PGE2 production | 139 to 140 °C | 0.87 µM | – | – | – | –
2 | CC1CCCCC1Oc1cc([N+](=O)[O-])ccc1N(C)S(C)(=O)=O (stereo not drawn) [Compound 20, N-Methyl-N-(2-methylcyclohexyloxy-4-nitrophenyl)methanesulfonamide] | did not show any inhibitory activity | – | 0.96 µM | – | – | – | –
3 | CS(=O)(=O)Nc1ccc([N+](=O)[O-])cc1Oc1ccccc1 [Nimesulide, N-(2-phenoxy-4-nitrophenyl)-methanesulfonamide, reference compound] | – | – | – | 27 µM | – | – | –
4 | CS(=O)(=O)Nc1ccc([N+](=O)[O-])cc1OCc1cccc2ccccc12 [Compound 38b, N-[2-(α-naphthylmethoxy) 4-nitrophenyl]methanesulfonamide] | – | 193 to 195 °C | – | – | inhibited aromatase activity in both JAR cells and SK-BR-3 cells | inhibited aromatase activity in both JAR cells and SK-BR-3 cells | < 50%
5 | CC1CCCCC1Oc1cc([N+](=O)[O-])ccc1NS(C)(=O)=O (stereo not drawn) [Compound 11, N-(2-Methylcyclohexyloxy-4-nitrophenyl)methanesulfonamide] | did not show any COX-2 inhibitory activity | – | 1.21 µM | – | – | – | –
6 | CN(c1ccc([N+](=O)[O-])cc1OC1CCCC1)S(C)(=O)=O [Compound 21, N-Methyl-N-(2-cyclopentyloxy-4-nitrophenyl)methanesulfonamide] | did not show any inhibitory activity | 102 to 104 °C | 0.44 µM | – | – | – | –
